Laboratory results: patent publication US4843089A, “Antimycotic agent” (Bayer Aktiengesellschaft, priority 1984, dated 1989)

Legend:
Candida = experiment: Antimycotic in vivo activity (oral) on candidosis of mice; set-up: species or system mice (SPF-CF1); conditions: in words, 25-100 mg/kg, versus compounds (A) and (B)
Method: Mice of the SPF-CF1 type were infected intravenously with 1-2×10^6 logarithmically growing Candida cells suspended in physiological saline solution. The animals were treated orally with in each case 25-100 mg of the products/kg of body weight one hour before and seven hours after infection. Untreated animals died 3 to 6 days after infection. The survival rate on the 6th day after infection was about 5% in the untreated control animals.

[1] = system: dermatophytes, molds and yeasts; experiment: Antimycotic in vitro activity, series dilution test (overall comparison with compound (B)); type: cell-based; conditions: in words; versus compound (B) known from the prior art
Method: The in vitro tests were carried out in a series dilution test using germ inocular of on average 5×10^3 to 10^4 germs/ml of substrate. The nutrient medium used was (a) for dermatophytes and molds. Sabourand's milieu d'epreuve (b) for yeasts: meat extract/glucose broth. The incubation temperature was 28° C. to 37° C. and the incubation period was 24 to 96 hours for yeasts and 96 hours for dermatophytes and molds.

[2] = system: Trichophyton von mentagrophytes; experiment: Antimicrobial in vivo activity (local), experimental trichophytosis in guinea pigs; conditions: 0.1% strength solution, 1x daily

| Structure (SMILES) | action against candidosis of mice compared with compounds (A) and (B) (Candida) | antimycotic action in vitro compared with compound (B) [1] | action (local) on experimental trichophytosis, in words [2] |
| --- | --- | --- | --- |
| CON=CC(C)(C)C(O)(COc1ccc(Cl)cc1)Cn1cncn1 (stereo not shown) [Example 4] | better action than compounds (A) and (B) | better antimycotic action than compound (B) | – |
| CC(C)(C=O)C(O)(COc1ccc(-c2ccccc2)cc1)Cn1cncn1 (stereo not shown) [Example 5] | better action than compounds (A) and (B) | – | – |
| CC(C)(C=O)C(O)(CCc1ccc(Cl)cc1)Cn1cncn1 (stereo not shown) [Example 7] | – | better antimycotic action than compound (B) | – |
| CC(C)(C=O)C(O)(CCc1ccc(Cl)cc1Cl)Cn1cncn1 (stereo not shown) [Example 8] | better action than compounds (A) and (B) | – | – |
| CON=CC(C)(C)C(O)(C#Cc1ccc(Cl)cc1)Cn1cncn1 (stereo not shown) [Example 10] | better action than compounds (A) and (B) | better antimycotic action than compound (B) | – |
| CC(C)(C=O)C(O)(C#Cc1ccc(-c2ccccc2)cc1)Cn1cncn1 (stereo not shown) [Example 11] | – | better antimycotic action than compound (B) | – |
| CON=CC(C)(C)C(O)(C#Cc1ccc(-c2ccccc2)cc1)Cn1cncn1 (stereo not shown) [Example 12] | better action than compounds (A) and (B) | better antimycotic action than compound (B) | – |
| CON=CC(C)(C)C(O)(C#Cc1ccc(Cl)cc1Cl)Cn1cncn1 (stereo not shown) [Example 13] | better action than compounds (A) and (B) | better antimycotic action than compound (B) | – |
| CC(C)(C=O)C(O)(CCc1ccc(Cl)cc1)Cn1ccnc1 (stereo not shown) [Example 16] | better action than compounds (A) and (B) | – | – |
| CON=CC(C)(C)C(O)(CSc1ccc(C(F)(F)F)c(Cl)c1)Cn1cncn1 (stereo not shown) [Example 17] | – | better antimycotic action than compound (B) | – |
| CON=CC(C)(C)C(O)(CSc1ccc(Br)cc1)Cn1cncn1 (stereo not shown) [Example 18] | better action than compounds (A) and (B) | better antimycotic action than compound (B) | good action |
| CC(C)(C=O)C(O)(CSc1ccc(Br)cc1)Cn1cncn1 (stereo not shown) [Example 19] | – | better antimycotic action than compound (B) | – |
| CON=CC(C)(C)C(O)(CSc1ccc(Cl)cc1)Cn1ccnc1 (stereo not shown) [Example 20] | better action than compounds (A) and (B) | better antimycotic action than compound (B) | good action |
| CON=CC(C)(C)C(O)(CSc1ccc(Br)cc1)Cn1ccnc1 (stereo not shown) [Example 21] | – | better antimycotic action than compound (B) | – |
| CON=CC(C)(C)C(O)(CCc1ccc(Cl)cc1)Cn1cncn1 (stereo not shown) [Example 22] | – | better antimycotic action than compound (B) | good action |
| CCCCON=CC(C)(C)C(O)(CCc1ccc(Cl)cc1)Cn1cncn1 (stereo not shown) [Example 23] | better action than compounds (A) and (B) | better antimycotic action than compound (B) | – |
| CON=CC(C)(C)C(O)(COc1ccc(Cl)cc1Cl)Cn1cncn1 (stereo not shown) [Example 24] | better action than compounds (A) and (B) | – | – |

| Structure (SMILES) | action against candidosis of mice compared with compounds (A) and (B) (Candida) | antimycotic action in vitro compared with compound (B) [1] | action (local) on experimental trichophytosis, in words [2] |
| --- | --- | --- | --- |
| CC(C)(C=NOCc1ccc(Cl)cc1)C(O)(CCc1ccc(Cl)cc1)Cn1cncn1 (stereo not shown) [Example 28] | better action than compounds (A) and (B) | better antimycotic action than compound (B) | – |
| CC(C)(C=NOCc1ccc(Cl)cc1Cl)C(O)(CCc1ccc(Cl)cc1)Cn1cncn1 (stereo not shown) [Example 29] | – | better antimycotic action than compound (B) | – |
| CC(C)(C=NOCc1ccc(Cl)cc1)C(O)(COc1ccc(Cl)c(Cl)c1)Cn1cncn1 (stereo not shown) [Example 30] | – | better antimycotic action than compound (B) | – |
| CON=CC(C)(C)C(O)(CSc1ccc(Cl)cc1)Cn1cncn1 (stereo not shown) [Example 32] | better action than compounds (A) and (B) | better antimycotic action than compound (B) | good action |
| C=CCON=CC(C)(C)C(O)(CSc1ccc(Cl)cc1)Cn1cncn1 (stereo not shown) [Example 33] | – | better antimycotic action than compound (B) | – |
| CON=CC(C)(C)C(O)(Cn1cncn1)c1ccc(-c2ccccc2)cc1 (stereo not shown) [Example 35] | – | better antimycotic action than compound (B) | – |
| C=CCON=CC(C)(C)C(O)(Cn1cncn1)c1ccc(-c2ccccc2)cc1 (stereo not shown) [Example 36] | – | better antimycotic action than compound (B) | – |
| CON=CC(C)(C)C(O)(Cn1cncn1)c1ccc(Cl)cc1 (stereo not shown) [Example 37] | better action than compounds (A) and (B) | better antimycotic action than compound (B) | good action |
| CCCON=CC(C)(C)C(O)(Cn1cncn1)c1ccc(Cl)cc1 (stereo not shown) [Example 38] | better action than compounds (A) and (B) | better antimycotic action than compound (B) | good action |
| CC(C)(C=NOCC1CCCCC1)C(O)(Cn1cncn1)c1ccc(Cl)cc1 (stereo not shown) [Example 39] | better action than compounds (A) and (B) | – | – |
| CCCCON=CC(C)(C)C(O)(Cn1cncn1)c1ccc(Cl)cc1 (stereo not shown) [Example 40] | better action than compounds (A) and (B) | – | good action |
| CCCC(O)(Cn1cncn1)C(C)(C)C=NOCc1ccc(Cl)cc1 (stereo not shown) [Example 41] | – | better antimycotic action than compound (B) | – |
| CCCC(O)(Cn1cncn1)C(C)(C)C=NOCc1ccc(Cl)cc1Cl (stereo not shown) [Example 42] | – | better antimycotic action than compound (B) | – |
| CCC(O)(Cn1cncn1)C(C)(C)C=NOCc1ccc(Cl)cc1 (stereo not shown) [Example 43] | – | better antimycotic action than compound (B) | – |
| CCCCC(O)(Cn1cncn1)C(C)(C)C=NOCC1CCCCC1 (stereo not shown) [Example 45] | – | better antimycotic action than compound (B) | – |
| CCCCC(O)(Cn1cncn1)C(C)(C)C=NOCc1ccc(Cl)cc1 (stereo not shown) [Example 46] | – | better antimycotic action than compound (B) | – |
| CCCCC(O)(Cn1cncn1)C(C)(C)C=NOCc1ccc(Cl)cc1Cl (stereo not shown) [Example 47] | – | better antimycotic action than compound (B) | – |
